Test results taken from patent US7238469B2, “Carbon monoxide improves outcomes in tissue and organ transplants and suppresses apoptosis” (priority 2001, dated 2007).

Assays:
VASP = VASP phosphorylation by Western blot in ECs; format: cell-based
Procedure: Cell extracts were prepared, electrophoresed under denaturing conditions (10–12.5% polyacrylamide gels), and transferred into polyvinyldifluoridine membranes (Immobilon P™; Millipore). HO-1 was detected using a rabbit anti-human HO-1 polyclonal antibody (StressGen Biotechnologies). Vasodilatator-stimulated phosphoprotein (VASP) was detected using a rabbit anti-human VASP polyclonal antibody (Calbiochem-Novabiochem). […] Primary antibodies were detected using horseradish peroxidase-conjugated donkey anti-rabbit or goat anti-mouse IgG secondary antibodies (Pierce Chemical Co.). Peroxidase was visualized using the enhanced chemiluminescence assay (Amersham Pharmacia Biotech) according to the manufacturer's instructions, and stored in the form of photoradiographs (Biomax™ MS; Eastman Kodak Co.). […] The amount of phosphorylated ERK, JNK, and p38 MAPK was quantified using ImageQuant® software (Molecular Dynamics). […] Phosphorylated ERK, JNK, and p38 MAPK were normalized to the total amount of total ERK, JNK, and p38 MAPK detected in the same membrane.
Most biological functions attributed to CO have been linked to its ability to bind guanylcyclase and increase the generation of cGMP. […] (B) Activation of guanylcyclase was monitored in BAECs by analyzing the phosphorylation of VASP. […] (D) Phosphorylation of VASP was analyzed by Western blot as described above in B. N.T., nontreated. […]

HO enzymatic activity = HO enzymatic activity (bilirubin generation in microsomes) of transplanted hearts; format: in vivo, mouse hearts transplanted into rats; settings: 2 days after transplantation
Procedure: HO enzymatic activity was measured by bilirubin generation in heart and liver microsomes. Animals were sacrificed, and the liver and hearts were flushed with ice-cold PBS and frozen at −70° C. until used. Organs were homogenized in four volumes of sucrose (250 mM) Tris-HCl (10 mM/L) buffer (pH 7.4) on ice and centrifuged (28,000 RPM 3×, 20 min, 4° C.). The supernatant was centrifuged (105,000 RPM 3×, 60 min, 4° C.), and the microsomal pellet was resuspended in MgCl2 (2 mM)-potassium phosphate (100 mM) buffer (pH 7.4) and sonicated on ice. The samples (1 mg of protein) were added to the reaction mixture (400 îl) containing rat liver cytosol (2 mg of protein), hemin (50 îM), glucose-6-phosphate (2 mM), glucose-6-phosphate dehydrogenase (0.25 U), and NADPH (0.8 mM) for 60 min at 37° C. in the dark. The formed bilirubin was extracted with chloroform and, OD was measured at 464–530 nm (extinction coefficient, 40 mM/cm for bilirubin). Enzyme activity is expressed as picomoles of bilirubin formed per milligram of protein per 60 min (pmol/mg/h). The protein concentration was determined by the bicinchoninic acid protein assay (Pierce, Georgetown). The background was ˜5 pmol/mg/h. […] Carboxyhemoglobin was measured 2 days after transplantation by using a Corning 865 blood gas analyzer (Clinical Chemistry, Massachusetts General Hospital, Boston, Mass.).

[1] = system: mouse 2F–2B endothelial cells; assay: Cellular ELISA for anti-graft Abs and rat C3 binding to mouse endothelial cells; format: in vivo; settings: rats with mouse cardiac graft under CVF plus CsA
Procedure: Serum levels of rat anti-mouse Abs were measured by cellular-based indirect ELISA. The mouse 2F–2B endothelial cell line (CRL-2168; American Type Culture Collection (ATCC), Manassas, Va.) was used as an antigenic target. Briefly, 2F–2B cells were cultured in DMEM (Life Technologies, Rockville, Md.), 10% FCS, 100 U/ml penicillin, and 100 îg/ml streptomycin (Life Technologies). Glutaraldehyde-fixed 2F–2B cells were incubated (1 h, 37° C.) in the presence of rat serum serially diluted in PBS 0.05% Tween 20 (Sigma) and rat anti-mouse Abs were detected by using mouse anti-rat IgM (MARM-4), IgG1 (MARG1-2), IgG2a (Marg2a-1), IgG2b (MARGb-8), or IgG2c (MARG2c-5) (kind gifts from Prof. H. Bazin, University of Louvain, Brussels, Belgium). Mouse anti-rat Abs were detected by using HRP-labeled goat anti-mouse Fab′ depleted of anti-rat Ig cross reactivity (0.1 îg/ml, 1 h, room temperature; Pierce, Rockford, Ill.). […] Absorbance was measured at Î=490 nm. The relative amount of circulating anti-graft Abs in the serum was expressed as OD (Î=490) taken from one serial dilution in the linear range of the assay (1:32–1:1024).
Binding of rat C3 to mouse endothelial cells was measured by a modified cellular ELISA with mouse 2F–2B endothelial cells as antigenic targets (Miyatake et al, J. Immunol. 160:4114, 1998). Briefly, nonfixed 2F–2B endothelial cells were incubated in the presence of rat serum serially diluted in GVB^++ buffer (1 h, 37° C.). Cells were fixed in PBS, 0.05% glutaraldehyde, and rat C3 deposition was detected by using a mouse anti-rat C3 mAb (Serotec).

| SMILES | VASP phosphorylation (VASP) | influence on C3 deposition on mouse endothelial cells [1] | influence on anti-mouse Ab (IgM) response [1] | other results |
| --- | --- | --- | --- | --- |
| Nc1nc2c(nc(Br)n2[C@@H]2O[C@@H]3COP(=O)(O)O[C@H]3[C@H]2O)c(=O)[nH]1 [8-Br-cGMP, 8-bromoguanosine-3′-5′-cyclic-monophosphate] | induce VASP phosphorylation | – | – | – |
| [C-]#[O+] [CO, carbon monoxide] | – | – | – | total HO enzymatic activity in transplanted mouse hearts (HO enzymatic activity; rats treated with SnPPIX and exposed to CO): 43.6 ± 7.57 pmol/mg/h |
| C=CC1=C(C)c2cc3[n-]c(cc4[n-]c(cc5nc(cc1n2)C(C)=C5C=C)c(C)c4CCC(=O)O)c(CCC(=O)O)c3C.[Fe+2] [FePPIX, iron protoporphyrin] | – | Neither SnPPIX or FePPIX treatment influenced C3 deposition | did not influence this Ab response | – |
| O=c1onc2cnc3ccccc3n12 [ODQ, 1H[1,2,4]oxadiazolo[4,3-α]quinoxalin-1] | prevent constitutive VASP phosphorylation | – | – | – |
| C=Cc1c2[n-]c(c1C)/C=c1\[n-]/c(c(C)c1C=C)=C\c1[n-]c(c(CCC(=O)O)c1C)C=c1[n-]/c(c(C)c1CCC(=O)O)=C\2.[Sn+4] [SnPPIX, tin protoporphyrin IX] | – | Neither SnPPIX or FePPIX treatment influenced C3 deposition | did not influence this Ab response | total HO enzymatic activity in transplanted mouse hearts (HO enzymatic activity): 32.37 ± 7.23 pmol/mg/h |
